Measured values: patent US20250387417A1, “CANNABINOID DERIVATIVES AND COMPOSITIONS COMPRISING SAME” (CANNASOUL ANALYTICS LTD., priority 2022, published 2025)

Test system: MCP-1 secretion
Assay: Acute inflammation: LPS-induced MCP-1 secretion in human colon epithelial cells (ELISA)
Assay type: cell-based
Details: 10 ng/ml LPS, 24 hours, ELISA of supernatants, FIG. 1
Procedure: The efficacy of the compounds according to certain embodiments of the present invention in the treatment of IBD was assessed. Human colon epithelial cells were thawed and cultured in suitable media at a final concentration of 4×10^5 cells per mL. The cells were then cultured and tested in triplicates for 48 hours. Following incubation, controls and test compounds were diluted in culture media to achieve the final assay concentration. Cells were treated with 10 ng/ml LPS with or without positive control/test compounds and incubated for 24 hours. Rosiglitazone at 7.2 μg/ml served as a positive control. Following incubation, the supernatants were collected, and the secretion levels of MCP-1 were measured by ELISA (R&D systems). Optical density was determined by ‘CLARIOStar-plus’® plate-reader. The chemokine concentration (pg/ml) was calculated using a standard curve.

| Compound | inhibition of MCP-1 secretion | inhibitory effect on MCP-1 secretion compared among the test compounds |
| --- | --- | --- |
| CCCCCCc1cc(O)c(C/C=C(\C)CCC=C(C)C)c(O)c1OC(C)=O [(E)-3-(3,7-dimethylocta-2,6-dien-1-yl)-6-hexyl-2,4-dihydroxyphenyl acetate] | effectively inhibited MCP-1 secretion in a statistically significant manner | – |
| CCCCCc1cc(O)c(CC=C(C)C)c(O)c1OC(C)=O [Compound 15] | effectively inhibited MCP-1 secretion in a statistically significant manner | most pronounced inhibitory effect on MCP-1 secretion |
| CCCCCc1cc(O)c(C2C=C(C)CCC2C(C)(C)O)c(O)c1OC(C)=O (stereo not shown) [Compound 17] | effectively inhibited MCP-1 secretion in a statistically significant manner | – |
